From US7105483B2, “Phosphinic pseudopeptide derivatives for the selective inhibition of the C-terminal active site of angiotensin I converting enzyme (ACE)” (Commissariat a l'Energie Atomique, priority 2002, dated 2006)
Like-named read-outs stand apart in the source and are kept apart here.

Legend:
[1] = target: C-terminal site of human recombinant ACE (Homo sapiens, UniProt P12821); test: Inhibition constants with respect to the C-terminal site of ACE (quenched-fluorescence substrate); format: biochemical; conditions: first HPLC fraction; substrate Mca-Ala-Ser-Asp-Lys-DpaOH; 25° C., pH 6.8, 50 mM HEPES, 10 mM CaCl2, 200 mM NaCl
Description: (§1) Human recombinant ACE is used for this determination. Curves of inhibition of ACE with pseudopeptides A to G are obtained using the quenched-fluorescence substrate Mca-Ala: Mca-Ala-Ser-Asp-Lys-DpaOH (Mca: […]; DpaOH: N-3-(2,4-dinitrophenyl)-L-2,3-diaminopropionyl).
(§2) The first fraction collected during the purification of each of the pseudopeptides A to G by HPLC (peak 1 of FIG. 2 for pseudopeptide G) is used for these tests.
(§3) From the inhibition profiles obtained with this substrate, for each pseudopeptide A to G, it is possible to determine the constants Ki N and Ki C by following the procedure described by Dive et al..
(§4) The inhibition experiments were performed at 25° C., pH 6.8, 50 mM HEPES, 10 mM, CaCl2, 200 mM NaCl.

[2] = target: N-terminal site of human recombinant ACE (Homo sapiens, UniProt P12821); test: Inhibition constants with respect to the N-terminal site of ACE (quenched-fluorescence substrate); format: biochemical; conditions: first HPLC fraction; substrate Mca-Ala-Ser-Asp-Lys-DpaOH; 25° C., pH 6.8, 50 mM HEPES, 10 mM CaCl2, 200 mM NaCl
Description: as §1, §2, §3, §4

ACE = ACE (Homo sapiens, UniProt P12821); test: Inhibitory power of HPLC-isolated diastereoisomers/fractions with respect to ACE; format: biochemical; conditions: HPLC-isolated diastereoisomer / first fraction (peak 1)
Description: In this figure, 4 peaks corresponding to the 4 diastereoisomers present in pseudopeptide G are observed (these 4 peaks have an identical mass spectrum, mass observed MH^+=618.23, expected mass=617.23).

cleavage of bradykinin = test: In vivo cleavage (protection) of bradykinin in mice; conditions: 10 mg/kg of body weight; protection with perindopril arbitrarily set at 100%; C57BL6/J mice
Procedure: (§5) This study is performed on batches of male C57BL6/J mice (Iffa Credo) weighing 20 to 23 g each, each batch comprising 6 mice.
(§6) To do this, the mice are anaesthetized by means of an intraperitoneal administration of sodium pentobarbital (Sanofi) at a dose of 80 mg/kg of body weight. The right carotid artery is isolated and a catheter (PE10, 0.28×0.61, A-M Systems, Inc.) is inserted into this artery to allow the withdrawal of blood samples, while another catheter (FEP, 0.12×0.67, Carnegie Medecin) is inserted into the ipsilateral jugular vein to allow the administration of the substances. Throughout the experiment, the body temperature of the mice is maintained at 38° C. […]
(§7) Samples of arterial blood, of about 50 μl, are withdrawn 30, 60 and 90 seconds after injection of the angiotensin I mixture or of the bradykinin mixture to the mice that received these mixtures, and 1, 5, 10 and 15 minutes after the start of injection of the Ac-SDKP mixture to the mice that received the latter mixture. […] The exact amounts of blood withdrawn are determined by reweighing the tubes. […]

[3] = system: conversion of angiotensin I into angiotensin II; test: In vivo cleavage of angiotensin I to angiotensin II in mice; conditions: perfusion over 30 minutes, C57BL6/J mice
Procedure: as §5, §6, §7

[4] = system: cleavage of the peptide Ac-SDKP; test: In vivo cleavage of the peptide Ac-SDKP in mice; conditions: 10 mg/kg of body weight, versus saline control
Procedure: as §5, §6, §7

[5] = rats; cited from earlier work
[6] = system: degradation of the peptide N-acetyl Ser-Asp-Lys-Pro (Ac-SDKP); conditions: mice, reference [9]; cited from earlier work
[7] = mice; cited from earlier work

Chain of C-terminal site of human recombinant ACE (P12821 30-1306): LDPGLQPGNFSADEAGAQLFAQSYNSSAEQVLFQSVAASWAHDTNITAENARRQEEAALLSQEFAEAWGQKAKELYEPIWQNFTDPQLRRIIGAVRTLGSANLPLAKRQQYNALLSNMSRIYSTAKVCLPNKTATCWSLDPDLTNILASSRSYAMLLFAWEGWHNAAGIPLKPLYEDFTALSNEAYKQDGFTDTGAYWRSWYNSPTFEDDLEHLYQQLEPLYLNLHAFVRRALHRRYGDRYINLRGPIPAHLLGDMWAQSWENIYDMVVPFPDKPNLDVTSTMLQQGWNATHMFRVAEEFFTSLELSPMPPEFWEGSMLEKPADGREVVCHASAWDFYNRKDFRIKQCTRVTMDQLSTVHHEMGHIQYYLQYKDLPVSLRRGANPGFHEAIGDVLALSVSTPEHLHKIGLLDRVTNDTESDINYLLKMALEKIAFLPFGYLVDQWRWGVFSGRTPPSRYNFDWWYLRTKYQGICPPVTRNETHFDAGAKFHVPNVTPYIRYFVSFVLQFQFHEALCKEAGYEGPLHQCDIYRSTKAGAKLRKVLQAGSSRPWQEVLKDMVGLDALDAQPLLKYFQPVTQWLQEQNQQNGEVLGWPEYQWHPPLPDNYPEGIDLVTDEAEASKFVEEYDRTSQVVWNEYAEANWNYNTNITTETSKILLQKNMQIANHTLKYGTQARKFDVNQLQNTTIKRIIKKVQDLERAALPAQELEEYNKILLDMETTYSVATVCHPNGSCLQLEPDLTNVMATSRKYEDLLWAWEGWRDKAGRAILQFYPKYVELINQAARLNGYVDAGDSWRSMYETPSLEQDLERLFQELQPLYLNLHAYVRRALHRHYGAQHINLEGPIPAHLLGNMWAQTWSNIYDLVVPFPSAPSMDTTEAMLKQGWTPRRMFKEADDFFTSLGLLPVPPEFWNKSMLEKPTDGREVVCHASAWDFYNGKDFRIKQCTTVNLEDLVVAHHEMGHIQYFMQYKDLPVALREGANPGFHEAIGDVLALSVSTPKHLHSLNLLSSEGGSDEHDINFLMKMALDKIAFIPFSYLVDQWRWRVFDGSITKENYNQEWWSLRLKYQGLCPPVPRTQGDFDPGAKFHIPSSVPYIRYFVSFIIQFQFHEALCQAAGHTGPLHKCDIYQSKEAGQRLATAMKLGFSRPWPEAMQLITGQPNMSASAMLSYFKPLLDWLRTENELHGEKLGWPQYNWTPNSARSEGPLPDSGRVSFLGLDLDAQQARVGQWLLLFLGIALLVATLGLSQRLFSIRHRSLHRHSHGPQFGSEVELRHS
Chain of N-terminal site of human recombinant ACE (P12821 30-1306): as above
Chain of ACE (P12821 30-1306): as above

| Structure (SMILES) | Ki [1] [nM] | Ki [2] [nM] | inhibitory power with respect to ACE (ACE) | further results |
| --- | --- | --- | --- | --- |
| CC(NC(=O)CCP(=O)(O)C(Cc1ccccc1)NC(=O)OCc1ccccc1)C(=O)O (centres unmarked) [Pseudopeptide A, reference compound] | 0.8 | 0.8 |  |  |
| CC(NC(=O)C1CCCC1P(=O)(O)C(Cc1ccccc1)NC(=O)OCc1ccccc1)C(=O)O (centres unmarked) [Pseudopeptide B] | 20 | 450 | capable of inhibiting ACE |  |
| O=C(NC(Cc1ccccc1)P(=O)(O)C1CCCC1C(=O)N1CCCC1C(=O)O)OCc1ccccc1 (centres unmarked) [Pseudopeptide C] | 4 | 60 | capable of inhibiting ACE |  |
| N=C(N)NCCCC(NC(=O)C1CCCC1P(=O)(O)C(Cc1ccccc1)NC(=O)OCc1ccccc1)C(=O)O (centres unmarked) [Pseudopeptide D] | 9 | 200 | capable of inhibiting ACE |  |
| CC(NC(=O)OCc1ccccc1)P(=O)(O)C1CCCC1C(=O)NC(CCCc1c[nH]c2ccccc12)C(=O)O (centres unmarked) [Pseudopeptide E] | 60 | 8000 | capable of inhibiting ACE |  |
| O=C(NC(CCc1ccccc1)P(=O)(O)C1CCCC1C(=O)NC(CCCc1c[nH]c2ccccc12)C(=O)O)OCc1ccccc1 (centres unmarked) [Pseudopeptide F] | 60 | 8000 | capable of inhibiting ACE |  |
| O=C(NC(Cc1ccccc1)P(=O)(O)C1CCCC1C(=O)NC(Cc1c[nH]c2ccccc12)C(=O)O)OCc1ccccc1 (centres unmarked) [Pseudopeptide G] | 3 | 10000 | shows inhibitory power | degree of protection of bradykinin (cleavage of bradykinin): 9.2%; reduction of the angiotensin II/angiotensin I ratio measured in the control mice ([3]; 0.9 mg/kg of body weight): 50%; reduction of the angiotensin II/angiotensin I ratio measured in the control mice ([3]; 30 mg/kg of body weight): 90%; effect on the cleavage of the peptide Ac-SDKP ([4]; C57BL6/J mice): no significant effect |
| CC(=O)N[C@@H](CC(=O)O)C(=O)N[C@@H](Cc1ccccc1)P(=O)(O)C[C@@H](C)C(=O)N[C@@H](C)C(N)=O [RXP407] |  |  |  | metabolism in vivo [5]: not metabolized; inhibition of the degradation of Ac-SDKP in vivo [6]: capable of inhibiting the degradation; metabolism in vivo [7]: not metabolized; increase of the plasmatic content of Ac-SDKP relative to control mice ([4]; mice): 16 fold |
| CCC[C@H](N[C@@H](C)C(=O)N1[C@H](C(=O)O)C[C@@H]2CCCC[C@@H]21)C(=O)OCC [perindopril, reference compound] |  |  |  | degree of protection of bradykinin (cleavage of bradykinin): 100% |
